Source: patent US20140005412A1, “TREATMENT OF ARTERIAL AGEING BY HMG CoA REDUCTASE INHIBITOR” (FARMICOM PHARMACEUTICAL COMPANY D.O.O., priority 2011, published 2014)

Legend:
[1] = tested on: brachial artery; assay: Ultrasound measurement of flow-mediated dilatation of brachial artery (FMD), endothelial function; format: in vivo, human; conditions: for FMD, after treatment: after 1 month (30 days) treatment; for FMD, improvement: after 1 month vs before treatment
Method: Fifty apparently healthy male individuals (42.6±1.9 years) were recruited in double blind, randomized study. Inclusion criteria were: The control group (n=25) received placebo, while the test group (n=25) received subtherapeutic daily dose of fluvastatin sodium-10 mg daily (the recommended therapeutic daily dose is 40 to 80 mg) during a period of 1 month-30 days. All subjects underwent clinical examination, blood pressure measurements ([…] automated sphygmomanometer) and ultrasound measurement of flow-mediated dilatation of brachial artery (FMD), pulse-wave velocity (PWV) and β-stiffness of carotid artery at inclusion (0th day) and after 1 month (30th day) of the study. Fasting blood samples were taken at the beginning and at the end of the study for laboratory analysis. Blood glucose, electrolytes and cholesterol were obtained using the VITRO 5.1 FS Chemical system (Ortho Clinical Diagnostics, Inc.). Ultrasound measurements were performed by a single examiner using Aloka ProSound Alpha 10 echo-machine. Endothelial function was measured by means of FMD on the brachial artery according to FMD guidelines (Corretti M C et al. Guidelines for the ultrasound assessment of endothelial-dependent flow-mediated vasodilation of the brachial artery: a report of the International Brachial Artery Reactivity Task Force. J Am Coll Cardiol 2002; 39: 257-65). The echo-machine continuously tracked and recorded the brachial artery diameter. Following the measurement of baseline brachial artery diameter (1 min), the forearm blood pressure cuff was inflated to 50 mmHg above the systolic pressure for 4 min. After the occlusion period, the cuff was rapidly deflated, inducing reactive hyperemia, and the brachial artery diameter was recorded for 3 min. At the end of the measurement, the machine automatically provided the values of FMD. All values were expressed as arithmetic mean±SEM and were normally distributed. Differences between values recorded at the beginning (0th day) and at the end of the study (30th day) were determined by one-way analysis of variance (ANOVA). When a significant interaction was present, the Bonferroni post-test was performed. […] All statistical analyses were performed using Graph Pad Prism 5.0 software.

[2] = tested on: right common carotid artery; assay: Ultrasound measurement of pulse-wave velocity (PWV); format: in vivo, human; conditions: for PWV, after treatment: after 1 month (30 days) treatment; for PWV, improvement: after 1 month vs before treatment
Method: (§1) Fifty apparently healthy male individuals (42.6±1.9 years) were recruited in double blind, randomized study. Inclusion criteria were: The control group (n=25) received placebo, while the test group (n=25) received subtherapeutic daily dose of fluvastatin sodium-10 mg daily (the recommended therapeutic daily dose is 40 to 80 mg) during a period of 1 month-30 days. All subjects underwent clinical examination, blood pressure measurements ([…] automated sphygmomanometer) and ultrasound measurement of flow-mediated dilatation of brachial artery (FMD), pulse-wave velocity (PWV) and β-stiffness of carotid artery at inclusion (0th day) and after 1 month (30th day) of the study. Fasting blood samples were taken at the beginning and at the end of the study for laboratory analysis. Blood glucose, electrolytes and cholesterol were obtained using the VITRO 5.1 FS Chemical system (Ortho Clinical Diagnostics, Inc.). The measurements of PWV and β-stiffness were performed on the right common carotid artery. The Aloka ultrasound device was also equipped with special software for automatic determination of the PWV and beta-stiffness through the analysis of pulse waves (Carerj S et al. Normal vascular aging evaluated by a new tool: e-tracking. Eur J Echocardiography 2006; suppl: S 49). All values were expressed as arithmetic mean±SEM and were normally distributed. Differences between values recorded at the beginning (0th day) and at the end of the study (30th day) were determined by one-way analysis of variance (ANOVA). When a significant interaction was present, the Bonferroni post-test was performed. […] All statistical analyses were performed using Graph Pad Prism 5.0 software.

[3] = tested on: right common carotid artery; assay: Ultrasound measurement of β-stiffness of carotid artery; format: in vivo, human; conditions: for β-stiffness, after treatment: after 1 month (30 days) treatment; for β-stiffness, improvement: after 1 month vs before treatment
Method: as §1

[4] = tested on: arterial wall; assay: "Biological" arterial age according to age-related normogram; format: in vivo, human
Excerpt: It is important to emphasize that there is a similarity between the terms morphological or structural which are used to describe the same characteristics by different authors but basically disclose the same characteristics of arterial wall. All three above mentioned methods FMD, PWV, and β-stiffness are standard in the art and generally widely accepted methods for estimation of functional or morphological characteristics of arteries. When administering the pharmaceutical composition according to the present invention the significant and unexpected improvement in all above mentioned characteristics are observed. Furthermore, by using age-related normogram obtained on large sample of apparently healthy subjects—who have a low cardiovascular risk as defined above—the estimation of “biological” arterial age can be determined. […] By using age-related normogram (according to the methods described in Jurasic M J et al. Beta stiffness—setting age standards. Acta Clin Croat 2009; 48:253-8; and Carerj S. Normal vascular ageing evaluated by a new tool: e-tracking. Eur J Echocardiography 2006; suppl 1:S49. Carerj S et al. Eur J Echocardiography 2006; suppl: S 49) the “biological” arterial age in participants according to Example 1 after 1 month of treatment and according to Example 2 after 5, 7 and 8 months after discontinuation of treatment was calculated (FIG. 3).

[5] = Fasting blood laboratory analysis (cholesterol, triglycerides, glucose); format: in vivo, human; conditions: Example 1, n=25, 10 mg daily, mean ± SEM
Excerpt: All subjects underwent clinical examination, blood pressure measurements ([…] automated sphygmomanometer) and ultrasound measurement of flow-mediated dilatation of brachial artery (FMD), pulse-wave velocity (PWV) and β-stiffness of carotid artery at inclusion (0th day) and after 1 month (30th day) of the study. Fasting blood samples were taken at the beginning and at the end of the study for laboratory analysis. Blood glucose, electrolytes and cholesterol were obtained using the VITRO 5.1 FS Chemical system (Ortho Clinical Diagnostics, Inc.).

[6] = tested on: arterial wall; assay: "Biological" arterial age according to age-related normogram; format: in vivo, human; remark: listed apart in the source
[7] = blood plasma; cited from earlier work
[8] = Example 2, rest period 7 months
[9] = Example 2, rest period 8 months
[10] = Example 4, 10 mg daily, after 1 month treatment period
[11] = Example 5, rest period 5 months
[12] = Example 5, rest period 8 months
[13] = Example 6, ten participants, 10 mg daily, 1. intervention, before
[14] = Example 6, 1. intervention, after 1 month of treatment
[15] = Example 6, 2. intervention (repetition), after 1 month of treatment
[16] = Example 6, 2. intervention (repetition), before, after rest period of 12 months
[17] = Example 1 study, 10 mg, after 30 days of treatment
[18] = Example 2, rest period 5 months
[19] = Example 5, rest period 3 months

CC(C)n1c(/C=C/C(O)CC(O)CC(=O)O)c(-c2ccc(F)cc2)c2ccccc21 (stereo not drawn) [Fluvastatin sodium, fluvastatin sodium]
FMD, after treatment ([1]; Example 1, 10 mg daily): 4.39%
FMD, improvement ([1]; Example 1, 10 mg daily): +91.0%
FMD, before treatment ([1]; Example 1, 10 mg daily): 2.31%
FMD increased by ([1]; Example 1 study (50 subjects, double-blind), 10 mg, after 30 days of treatment): 91.0%
FMD, residual improvement in % of effect achieved after 1 month of treatment ([1]; Example 2 (participants of Example 1), rest period 5 months): 53.3%
FMD, residual improvement in % of effect achieved after 1 month of treatment [1, 8]: 33%
FMD, residual improvement in % of effect achieved after 1 month of treatment [1, 9]: 10.5%
FMD increased by [1, 10]: 120.8%
FMD, after treatment ([1]; Example 4, 10 mg daily): 5.30%
FMD, improvement ([1]; Example 4, 10 mg daily): +120.8%
FMD, before treatment ([1]; Example 4, healthy males n=15, 10 mg daily): 2.40%
FMD, residual improvement in % of effect achieved after 1 month of treatment ([1]; Example 5 (participants of Example 4), rest period 3 months): 73.4%
FMD, residual improvement in % of effect achieved after 1 month of treatment [1, 11]: 55.2%
FMD, residual improvement in % of effect achieved after 1 month of treatment [1, 12]: 16.3%
FMD [1, 13]: 3.5 ± 0.6%
FMD [1, 14]: 5.3 ± 0.6%
FMD [1, 15]: 5.7 ± 0.2%
FMD [1, 16]: 3.9 ± 0.8%
PWV, after treatment ([2]; Example 1, 10 mg daily): 5.41 m/s
PWV, improvement ([2]; Example 1, 10 mg daily): −6.4%
PWV, before treatment ([2]; Example 1, 10 mg daily): 5.76 m/s
PWV decreased by [2, 17]: 6.4%
PWV, residual improvement in % of effect achieved after 1 month of treatment [2, 18]: 29.7%
PWV, residual improvement in % of effect achieved after 1 month of treatment [2, 8]: 10%
PWV, residual improvement in % of effect achieved after 1 month of treatment [2, 9]: 1.9%
PWV decreased by [2, 10]: 10.4%
PWV, after treatment ([2]; Example 4, 10 mg daily): 5.00 m/s
PWV, improvement ([2]; Example 4, 10 mg daily): −10.4%
PWV, before treatment ([2]; Example 4, 10 mg daily): 5.52 m/s
PWV, residual improvement in % of effect achieved after 1 month of treatment [2, 19]: 55.2%
PWV, residual improvement in % of effect achieved after 1 month of treatment [2, 11]: 30.1%
PWV, residual improvement in % of effect achieved after 1 month of treatment [2, 12]: 5.2%
PWV [2, 13]: 5.5 ± 0.4 m/s
PWV [2, 14]: 5.1 ± 0.4 m/s
PWV [2, 15]: 5.3 ± 0.3 m/s
PWV [2, 16]: 5.6 ± 0.3 m/s
β-stiffness, after treatment ([3]; Example 1, 10 mg daily): 6.40 U
β-stiffness, improvement ([3]; Example 1, 10 mg daily): −10.9%
β-stiffness, before treatment ([3]; Example 1, 10 mg daily): 7.10 U
β-stiffness decreased by [3, 17]: 10.9%
β-stiffness, residual improvement in % of effect achieved after 1 month of treatment [3, 18]: 30.4%
β-stiffness, residual improvement in % of effect achieved after 1 month of treatment [3, 8]: 9%
β-stiffness, residual improvement in % of effect achieved after 1 month of treatment [3, 9]: 0.9%
β-stiffness of the carotid artery decreased by [3, 10]: 12.7%
β-stiffness, after treatment ([3]; Example 4, 10 mg daily): 6.10 U
β-stiffness, improvement ([3]; Example 4, 10 mg daily): −12.7%
β-stiffness, before treatment ([3]; Example 4, 10 mg daily): 6.88 U
β-stiffness, residual improvement in % of effect achieved after 1 month of treatment [3, 19]: 50.1%
β-stiffness, residual improvement in % of effect achieved after 1 month of treatment [3, 11]: 33.6%
β-stiffness, residual improvement in % of effect achieved after 1 month of treatment [3, 12]: 3.1%
β-stiffness [3, 13]: 6.4 ± 0.8 U
β-stiffness [3, 14]: 5.7 ± 0.7 U
β-stiffness [3, 15]: 6.0 ± 0.6 U
β-stiffness [3, 16]: 6.6 ± 0.6 U
Arterial age according to age normogram, after treatment ([4]; Example 1, 10 mg daily, after 1 month treatment): 38.2 years
Arterial age according to age normogram, improvement ([4]; Example 1, 10 mg daily, after 1 month vs before treatment): −6.8 years
Arterial age according to age normogram, before treatment ([4]; Example 1, 10 mg daily, before treatment): 45.0 years
Arterial age according to age-related normogram [4, 18]: 42.3 years
Arterial age according to age-related normogram, difference (in brackets) to before treatment [4, 18]: −2.7 years
Arterial age according to age-related normogram, difference (in brackets) to before treatment [4, 9]: −0.5 years
HDL cholesterol ([5]; 1st day (baseline)): 1.2 ± 0.1 mmol/L
LDL cholesterol ([5]; 1st day (baseline)): 3.7 ± 0.2 mmol/L
Total cholesterol ([5]; 1st day (baseline)): 5.7 ± 0.2 mmol/L
Triglycerides ([5]; 1st day (baseline)): 1.6 ± 0.2 mmol/L
HDL cholesterol ([5]; 30th day): 1.2 ± 0.1 mmol/L
LDL cholesterol ([5]; 30th day): 3.6 ± 0.2 mmol/L
Total cholesterol ([5]; 30th day): 5.4 ± 0.2 mmol/L
Triglycerides ([5]; 30th day): 1.6 ± 0.3 mmol/L
Arterial age according to age-related normogram [6, 8]: 43.6 years
Arterial age according to age-related normogram, difference (in brackets) to before treatment [6, 8]: −1.4 years
Arterial age according to age-related normogram [6, 9]: 44.5 years
Arterial age according to age-related normogram, after treatment ([6]; Example 4, 10 mg daily, after 1 month treatment): 32.0 years
Arterial age according to age-related normogram, improvement ([6]; Example 4, 10 mg daily, after 1 month vs before treatment): −9.0 years
Arterial age according to age-related normogram, before treatment ([6]; Example 4, 10 mg daily, before treatment): 41.0 years
Arterial age according to age-related normogram [6, 19]: 34.2 years
Arterial age according to age-related normogram, difference (in brackets) to before treatment [6, 19]: −6.8 years
Arterial age according to age-related normogram [6, 11]: 36.4 years
Arterial age according to age-related normogram, difference (in brackets) to before treatment [6, 11]: −4.6 years
Arterial age according to age-related normogram [6, 12]: 40.0 years
Arterial age according to age-related normogram, difference (in brackets) to before treatment [6, 12]: −1.0 years
half-life time (t1/2) [7]: about 2.5 hours
